From patent publication US12319655B2, “RAF kinase inhibitors and methods of use thereof” (Deciphera Pharmaceuticals, LLC, priority 2021, dated 2025) come the findings set out here.

The first experiment deals with Miapaca-2 cells. The experiment in a line: MiaPaca-2 Cell Proliferation Assay (1). The conditions noted are these: Homo sapiens, MIA PaCa-2, single agent, read-out: MiaPaca2 (1) IC50. The experiment is classed as cell-based. The method in brief:
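Resazurin was added after compound exposure and incubated 5-6 h, then fluorescence read at 540 nm excitation and 600 nm emission to give IC50.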
With `Cc1cc(F)c(NC(=O)c2ccnc(C(C)(C)C#N)c2)cc1-c1cncc(-c2ccnc(NC(=O)C3CC3)c2)c1` [Example 418], the IC50 lay in the range of 100 to 500 nM.

`COC(=O)Nc1cc(-c2cncc(-c3cc(NC(=O)c4ccnc(C(C)(C)F)c4)ccc3C)c2)ccn1` [Example 435]: the half-inhibitory concentration (IC50) was 500 to 1000 nM.

For the compound `Cc1ncc(NC(=O)c2ccnc(C(C)(C)F)c2)cc1-c1cncc(-c2cc(NC(=O)C3CC3)ncn2)c1` [Example 406], the 50% inhibitory concentration (IC50) is 500 to 1000 nM.

Regarding `Cc1ncc(NC(=O)c2ccnc(C(C)(C)C#N)c2)cc1-c1cncc(-c2cc(NC(=O)C3CC3)ncn2)c1` [Example 410], the concentration for half-maximal inhibition (IC50) lay in the range of 1000 to 10000 nM.

In the case of `Cc1ccc(NC(=O)c2cc(C3CC3)on2)cc1-c1cncc(-c2cc(NC(=O)C3CC3)ncn2)c1` [Example 421], the IC50 was 1000 to 10000 nM.

For the compound `Cc1ccc(NC(=O)c2cn(C(C)C)nn2)cc1-c1cncc(-c2cc(NC(=O)C3CC3)ncn2)c1` [Example 412], the concentration for half-maximal inhibition (IC50) was in the range of 500 to 1000 nM.

Take `CNC(=O)c1cc(-c2cc(-c3cc(NC(=O)c4ccnc(C(C)(C)C#N)c4)ccc3OC)ccn2)ccn1` [Example 437]: the half-maximal inhibitory concentration (IC50) was 1000 to 10000 nM.

Turning to `Cc1ccc(NC(=O)c2cc(C(C)(C)C)on2)cc1-c1cncc(-c2cc(NC(=O)C3CC3)ncn2)c1` [Example 431], the IC50 was 1000 to 10000 nM.

As to `CNC(=O)c1cc(-c2nccc(-c3cc(NC(=O)c4ccnc(C(C)(C)F)c4)c(F)cc3C)n2)ccn1` [Example 427], the concentration for half-maximal inhibition (IC50) is 1000 to 10000 nM.

Take `COC(=O)Nc1cc(-c2cncc(-c3cc(NC(=O)c4ccnc(C(C)(C)C#N)c4)ccc3C)c2)ncn1` [Example 414]: the IC50 lay within 100 to 500 nM.

Take `Cc1ccc(NC(=O)c2cnn(C3CC3)c2)cc1-c1cncc(-c2cc(NC(=O)C3CC3)ncn2)c1` [Example 430]: the IC50 is 1000 to 10000 nM.

Consider `COc1ccc(NC(=O)c2ccnc(C(C)(C)C#N)c2)cc1-c1cccc(-c2cc(NC(=O)C3CC3)ncn2)c1` [Example 438], for which the IC50 is 1000 to 10000 nM.

As for `Cc1ccc(NC(=O)c2ccnc(C(C)(C)F)c2)cc1-c1cncc(-c2ccnc(NC(=O)C3CC3)c2)c1` [Example 417], the half-inhibitory concentration (IC50) lay within 500 to 1000 nM.

In the case of `Cc1ccc(NC(=O)c2ccnc(C(C)(F)F)c2)cc1-c1cncc(-c2cc(NC(=O)C3CC3)ncn2)c1` [Example 419], the half-maximal inhibitory concentration (IC50) lay in the range of 100 to 500 nM.

In the case of `COC(=O)Nc1cc(-c2cncc(-c3cc(NC(=O)c4ccnc(C5(C#N)CC5)c4)ccc3C)c2)ncn1` [Example 405], the IC50 was in the range of 500 to 1000 nM.

Take `Cc1ccc(NC(=O)c2cc(C3CC3)n(C)n2)cc1-c1nccc(-c2ccnc(NC(=O)C3CC3)c2)n1` [Example 436]: the half-inhibitory concentration (IC50) lay within 1000 to 10000 nM.

Take `CNC(=O)c1cc(-c2cncc(-c3cc(NC(=O)c4ccnc(C(C)(C)F)c4)ccc3C)c2)ccn1` [Example 413]: the IC50 was in the range of 1000 to 10000 nM.

Take `COC(=O)Nc1cc(-c2cc(-c3cc(NC(=O)c4ccnc(C(C)(C)F)c4)ccc3C)nc(C)n2)ccn1` [Example 416]: the IC50 was 500 to 1000 nM.

In the case of `Cc1ccc(NC(=O)c2ccnc(C(C)C)c2)cc1-c1cncc(-c2cc(NC(=O)C3CC3)ncn2)c1` [Example 434], the IC50 was 100 to 500 nM.

Turning to `Cc1ccc(NC(=O)c2ccnc(C(C)(C)F)c2)cc1-c1cncc(-c2cc(N)ncn2)c1` [Example 411], the half-inhibitory concentration (IC50) was 1000 to 10000 nM.

With `Cc1ncc(NC(=O)c2ccnc(C(C)(C)F)c2)cc1-c1cncc(-c2ccnc(NC(=O)C3CC3)c2)c1` [Example 433], the IC50 was in the range of 500 to 1000 nM.

The test system of the next experiment is Miapaca-2 cells. The experiment in a line: MiaPaca-2 Combination Cell proliferation Assay (1) with cobimetinib. The experiment is classed as cell-based. The following applies: MiaPaca-2 cell proliferation, read-out: MiaPaca-2 Combo (1) IC50.
In the case of `COc1ccc(NC(=O)c2ccnc(C(C)(C)C#N)c2)cc1-c1cccc(-c2cc(NC(=O)C3CC3)ncn2)c1` [Example 438], the IC50 was 100 to 500 nM.

Take `CNC(=O)c1cc(-c2cncc(-c3cc(NC(=O)c4ccnc(C(C)(C)F)c4)ccc3C)c2)ccn1` [Example 413]: the IC50 is 100 to 500 nM.

In a further experiment the test system is Miapaca-2 cells. The experiment in a line: MiaPaca-2 Combination Cell Proliferation Assay (2) with cobimetinib. The experiment is classed as cell-based. The conditions noted are these: MiaPaca-2 cell proliferation, read-out: MiaPaca-2 Combo (2) IC50. Here is the method:
MiaPaca-2 Combination Cell Proliferation Assay (2)
Miapaca-2 cells (catalog #CRL-1420) are obtained from the American Type Culture Collect (ATCC, Manassas, VA). Briefly, cells were grown in DMEM supplemented with 10% characterized fetal bovine serum (Invitrogen, Carlsbad, CA), 2.5% New Zealand sourced horse serum and 1% Penicillin/Streptomycin/L-Glutamine at 37° C., 5% CO2, and 95% humidity. Cells are expanded until reaching 70-95% confluency at which point they are subcultured or harvested for assay use. Using the Beckman Coulter Echo 650, a threefold, 8-point serial dilution of compound was spotted column wise into a 384 well black, clear bottom, tissue culture treated plate. Likewise, a threefold, 8-point serial dilution of cobimetinib was spotted row wise into the 384 well black, clear bottom plate containing compound. DMSO concentration was constant across all wells at 0.4%. Seven hundred fifty cells are added per well in 50 μL complete growth medium in each 384-well plate. Plates are incubated for 67-72 hours at 37° C., 5% CO2, and 95% humidity. At the end of the incubation, 10 μL of a 440 μM solution of resazurin (Sigma, St. Louis, MO) in PBS is added to each well of the plate and plates are incubated for an additional 4-6 hours at 37° C., 5% CO2, and 95% humidity. Plates are read on a Synergy2 or equivalent reader (Biotek, Winooski VT) using an excitation of 540 nm and an emission of 600 nm. Drug synergy was assessed via BLISS analysis in the Combenefit software (Cancer Research UK Cambridge Institute, Cambridge, UK). Data is analyzed using Prism software (Graphpad, San Diego, CA) to calculate IC50 values. Shifts in test compound IC50 values are reported from top-constrained combination therapy curves.
Regarding `Cc1ccc(NC(=O)c2ccnc(C(C)(C)F)c2)cc1-c1ccnc(-c2ccnc(C(N)=O)c2)c1` [Example 476], the IC50 is 100 to 500 nM.

As for `CNC(=O)c1cc(-c2cncc(-c3cc(NC(=O)c4ccnc(C(C)(F)F)c4)ccc3C)c2)ccn1` [Example 440], the IC50 was in the range of 500 to 1000 nM.

`Cc1cc(-c2cc(NC(=O)c3ccnc(C(C)(C)F)c3)ccc2C)cc(-c2ccnc(C(N)=O)c2)n1` [Example 484]: the IC50 lay in the range of 500 to 1000 nM.

Take `CNC(=O)c1cc(-c2cc(-c3cc(NC(=O)c4ccnc(C(C)C)c4)ccc3C)ccn2)ccn1` [Example 443]: the concentration for half-maximal inhibition (IC50) was 100 to 500 nM.

For `CNC(=O)c1cc(-c2cc(-c3cc(NC(=O)c4ccnc(C(C)(C)F)c4)c(F)cc3F)ccn2)ccn1` [Example 482], the concentration for half-maximal inhibition (IC50) lay in the range of 1000 to 10000 nM.

As for `CNC(=O)c1cc(-c2cncc(-c3cc(NC(=O)c4ccnc(C(C)C)c4)ccc3C)c2)ccn1` [Example 445], the IC50 fell in the range of 100 to 500 nM.

For `CNC(=O)c1cc(-c2cc(-c3cc(NC(=O)c4ccnc(C(C)(C)F)c4)ccc3F)ccn2)ccn1` [Example 479], the half-maximal inhibitory concentration (IC50) fell in the range of 1000 to 10000 nM.

Take `CNC(=O)c1cc(-c2cc(-c3cc(NC(=O)c4ccnc(C(C)(F)F)c4)ccc3C)ccn2)ccn1` [Example 441]: the IC50 was in the range of 100 to 500 nM.

As a reminder, the IC50 is the midpoint of a concentration-inhibition curve.
